Data taken from patent US7595395B2, “Gabaergic agents to treat memory deficits” (priority 2005, dated 2009).

Experiments:
α2β3γ2 GABAA receptor = α2β3γ2 GABAA receptor (Rattus norvegicus, UniProt P18508+P23576); experiment: Two-electrode voltage clamp in Xenopus oocytes, α2β3γ2; conditions: oocytes
[1] = system: full panel of receptors (5ht1a ... σ1, σ2); experiment: Full panel receptor binding (secondary binding)
Text: FIGS. 28 A and B provide a full panel Receptor data for certain compounds of the invention. Data on the full panel (secondary binding) are Ki values. The Ki values are reported in nanomolar concentrations, In the Full panel data various receptors were used, including 5ht1a, 5ht1b, 5ht1d, 5ht1e, 5ht2a, 5ht2b, 5ht2c, 5ht3, 5ht5a, 5ht6, 5ht7, α1A, α1B, α2A, α2B, α2C, β1, β2, CB1, CB2, D1, D2, D3, D4, D5, DAT, DOR, H1, H2, H3, H4, imidazoline 1, KOR, M1, M2, M3, M4, M5, MDR1, MOR, NET, NMDA, SERT, σ1, and σ2. 5-HT receptors, 5ht1a, 5ht1b, 5ht1d, 5ht1e, 5ht2a, 5ht2b, 5ht2c, 5ht3, 5ht5a, 5ht6, 5ht7, are receptors for the neurotransmitter and peripheral signal mediator serotonin, also known as 5-hydroxytryptamine or 5-HT. α1A, α1B, α2A, α2B, α2C, β1, β2; CB1, CB2 are adrenoceptors; cannabinoid receptors, D1, D2, D3, D4, D5 are dopamine receptors; DAT is dopamine transporter receptor; DOR is δ-Opioid receptor; H1, H2, H3, H4 are histamine receptors; KOR is κ-Opioid receptor; M1, M2, M3, M4, M5 are muscarinic acetylcholine receptors; MDR represents multidrug resistance in the course of exposure to various compounds that are used in modern anticancer therapy, including cytotoxic drugs and differentiating agents. […]

Sequence of α2β3γ2 GABAA receptor (P23576 29-451): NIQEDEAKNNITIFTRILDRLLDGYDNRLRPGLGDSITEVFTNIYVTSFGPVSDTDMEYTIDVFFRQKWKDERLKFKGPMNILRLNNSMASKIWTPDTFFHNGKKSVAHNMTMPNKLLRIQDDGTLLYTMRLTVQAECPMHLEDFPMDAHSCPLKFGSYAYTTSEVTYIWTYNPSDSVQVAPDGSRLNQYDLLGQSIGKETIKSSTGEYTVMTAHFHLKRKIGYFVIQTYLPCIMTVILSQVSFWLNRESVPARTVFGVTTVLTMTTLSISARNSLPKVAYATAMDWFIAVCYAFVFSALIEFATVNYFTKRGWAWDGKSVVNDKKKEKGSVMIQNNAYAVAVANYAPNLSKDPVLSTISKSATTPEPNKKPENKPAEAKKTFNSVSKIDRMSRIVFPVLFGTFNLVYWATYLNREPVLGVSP
Sequence of α2β3γ2 GABAA receptor (P63079 26-473 partner): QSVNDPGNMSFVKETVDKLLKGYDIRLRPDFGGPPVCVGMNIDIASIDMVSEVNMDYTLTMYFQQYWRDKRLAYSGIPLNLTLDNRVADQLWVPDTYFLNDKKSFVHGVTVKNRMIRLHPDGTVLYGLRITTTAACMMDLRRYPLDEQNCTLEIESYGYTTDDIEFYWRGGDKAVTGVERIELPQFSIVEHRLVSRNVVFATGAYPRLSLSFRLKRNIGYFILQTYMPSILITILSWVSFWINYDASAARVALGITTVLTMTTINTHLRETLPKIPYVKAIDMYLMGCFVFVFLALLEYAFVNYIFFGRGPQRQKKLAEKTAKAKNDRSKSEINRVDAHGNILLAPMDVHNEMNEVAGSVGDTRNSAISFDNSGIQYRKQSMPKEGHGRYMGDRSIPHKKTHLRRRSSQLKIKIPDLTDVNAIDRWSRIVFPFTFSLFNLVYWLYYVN
Sequence of α2β3γ2 GABAA receptor (P18508 39-466): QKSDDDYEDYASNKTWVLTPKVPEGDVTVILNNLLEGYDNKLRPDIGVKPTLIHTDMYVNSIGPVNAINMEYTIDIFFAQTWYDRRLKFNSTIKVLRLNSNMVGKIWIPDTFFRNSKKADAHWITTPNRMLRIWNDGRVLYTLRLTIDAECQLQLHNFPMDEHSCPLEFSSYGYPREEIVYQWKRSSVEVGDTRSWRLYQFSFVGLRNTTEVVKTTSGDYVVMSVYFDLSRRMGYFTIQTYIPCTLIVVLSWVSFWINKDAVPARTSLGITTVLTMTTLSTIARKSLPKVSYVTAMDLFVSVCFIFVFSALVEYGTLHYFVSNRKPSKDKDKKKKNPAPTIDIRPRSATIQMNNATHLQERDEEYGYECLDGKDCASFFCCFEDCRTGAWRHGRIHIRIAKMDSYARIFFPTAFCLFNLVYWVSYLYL

In the case of COCc1ncn2c1CN(C)C(=O)c1cc(Cl)ccc1-2 [PWZ-029, methyl(8-chloro-5,6-dihydro-5-methyl-6-oxo-4H-imidazo[1,5-α][1,4]benzodiazepin-3-yl)methyl ether], the “efficacy / modulation of GABA elicited currents at α2 (in words)” value (α2β3γ2 GABAA receptor) is reported as “very, very weak agonist activity”.
With CCc1ccc2c(c1)C(=O)N(C)Cc1c(C(=O)OCCCOC(=O)c3ncn4c3CN(C)C(=O)c3cc(CC)ccc3-4)ncn1-2 [XLi356, 1,3-Bis(8-ethyl-5,6-dihydro-5-methyl-6-oxo-4H-imidazo[1,5a][1,4]benzodiazepine-3-carboxy)propyl diester] the “binding to other receptors in full panel (in words)” value [1] was “do not bind to other receptors at levels of concern”.
CCOC(=O)c1ncn2c1CN=C(c1ccccc1)c1cc(-c3ccccc3)ccc1-2 [DM-I-81, Ethyl 8-phenyl-6-phenyl-4H-benzo[f]imidazo[1,5-a][1,4]diazepine-3-carboxylate] showed a melting point of 200 to 201 °C.
